Experiments:
GFP expression = test: Exemplary SIMM circuit of FIG. 2B, GFP output (FIG. 2C); assay type: cell-based; conditions: inducer added to the exemplary SIMM circuit of FIG. 2B
Source text: FIGS. 2A-2C depict an exemplary switch-module (SIMM) for use in the converters described herein and data from the exemplary switch module (SIMM). FIG. 2A depicts an exemplary SIMM comprising a first inducible promoter sequence (P inducible,1) linked to a forward recombinase recognition site (R1RS), an inverted sequence of a second inducible promoter (P inducible,2), a recombinase sequence (Recombinase 1), and a reverse recombinase recognition site (R1RS). Further upstream of the first inducible promoter sequence of the SIMM is an inverted sequence of a constitutively active inducer agent that is specific for the second inducible promoter. Downstream of the reverse recombinase recognition site of the SIMM is an inverted sequence of a third inducible promoter (P inducible,3) and a sequence encoding a dominant negative version of the inducer agent specific for the second inducible promoter. A further component of the exemplary circuit is a sequence of the second inducible promoter operably linked to an output product. In the absence of any inducing agent, constitutive expression of the inducer agent that is specific for the second inducible promoter drives expression from the inducible promoter operably linked to an output product. […]

Hin recombinase = Hin recombinase (Salmonella typhimurium, UniProt P03013); conditions: relative to hixL and hixR; cited from earlier work
Hin = Hin (Salmonella typhimurium, UniProt P03013); conditions: relative to wild type sites hixL and hixR; cited from earlier work
signaling complex = conditions: read-out: Affinity (Kd) for signaling complex; cited from earlier work

Hin recombinase, sequence (P03013 whole entry): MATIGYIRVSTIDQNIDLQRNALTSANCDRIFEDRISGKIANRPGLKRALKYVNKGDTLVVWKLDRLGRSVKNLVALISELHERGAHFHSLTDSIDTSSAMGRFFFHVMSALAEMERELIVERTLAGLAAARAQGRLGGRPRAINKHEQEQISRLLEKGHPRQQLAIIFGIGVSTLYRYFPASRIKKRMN
Hin, sequence (P03013 whole entry): as above

Cc1c2c(c(O)c3c(O)cccc13)C(=O)[C@]1(O)C(=O)C(C(N)=O)=C(O)[C@@H](N(C)C)[C@@H]1C2 [anhydrous tetracycline, Anhydrotetracycline]
Effect on GFP expression of the circuit (GFP expression): inhibits GFP expression

CC(C)S[C@@H]1O[C@H](CO)[C@H](O)[C@H](O)[C@H]1O [IPTG, isopropyl β-D-1-thiogalactopyranoside]
Effect on GFP expression of the circuit (GFP expression): restores the circuit to its initial state

hixC: composite 26 bp symmetrical hix site, binding site for Salmonella typhimurium Hin recombinase (DNA TTATCAAAAACCATGGTTTTTGATAA; chemistry not given here)
fold slower inversion rate than wild type sites hixL and hixR (Hin recombinase): 16 fold | binding affinity for Hin (Hin): higher binding affinity for Hin

Maltose-binding protein
Kd (signaling complex): 250 µM

Reference: patent US9284562B2, “Biological circuit chemotactic converters” (Trustees of Boston University, priority 2009, dated 2016)
